Data reported in US12247015B2, “3-amino-4H-benzo[e][1,2,4]thiadiazine 1,1-dioxide derivatives as inhibitors of MRGX2” (Solent Therapeutics, LLC, priority 2019, dated 2025).

Target: hMRGX2 (CHO-K1 cells overexpressing MRGX2) (Homo sapiens (Human), UniProt Q96LB1)
Experiment: In vitro inhibition (EC50) of intracellular calcium flux, FLIPR Tetra, substance P stimulation
Format: cell-based
Settings: stimulated with MRGX2 ligand substance P, FLIPR Calcium 5, read-out: hMRGX2 Cellular Potency (pEC50) (converted)
Method: In Vitro Inhibition (EC50) of Intracellular Calcium Flux
The release of intracellular calcium following stimulation of cells with substance P in the presence or absence of inhibitor compounds was measured using the FLIPR Tetra® system. CHO-K1 cells overexpressing MRGX2 were seeded into 384-well plates (Black clear bottom, TC-treated, Fisher #07-200-655) and incubated overnight to allow for cell attachment. Media was removed, and 1× loading buffer (FLIPR® Calcium 5 assay solution, Molecular Devices, per manufacturer specifications) was added. The plates were incubated at 37° C. for 30 minutes. Test compounds were added to cells (11-point dose response, 10 µM maximum concentration) and fluorescence measured (120 seconds, in real time) using the FLIPR Tetra® system. Immediately following, MRGX2 ligand substance P was added at a final concentration of 1 µM and fluorescence measured (120 seconds, in real time) using the FLIPR Tetra® system. The data for the examples are reported as pEC50.

hMRGX2 (CHO-K1 cells overexpressing MRGX2), sequence (Q96LB1 whole entry): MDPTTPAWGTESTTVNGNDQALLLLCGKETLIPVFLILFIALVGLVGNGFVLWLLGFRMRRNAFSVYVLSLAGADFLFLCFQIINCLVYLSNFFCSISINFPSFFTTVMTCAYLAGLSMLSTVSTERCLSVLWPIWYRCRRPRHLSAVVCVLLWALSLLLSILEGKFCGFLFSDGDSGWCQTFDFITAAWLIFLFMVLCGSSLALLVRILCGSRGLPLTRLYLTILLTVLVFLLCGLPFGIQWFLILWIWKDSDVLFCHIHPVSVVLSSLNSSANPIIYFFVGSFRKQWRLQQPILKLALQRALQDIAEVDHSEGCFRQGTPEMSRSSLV

SMILES	EC50
Cc1cnc(CNC2=NS(=O)(=O)c3cccc(-c4cccc(F)c4Cl)c3N2)o1 [Example 38, 5-(2-chloro-3-fluorophenyl)-3-(((5-methyloxazol-2-yl)methyl)amino)-4H-benzo[e][1,2,4]thiadiazine 1,1-dioxide]	51.9 nM
COc1cccnc1CNC1=NS(=O)(=O)c2cccc(-c3cccc(F)c3Cl)c2N1 [Example 122, 5-(2-chloro-3-fluorophenyl)-3-(((3-methoxypyridin-2-yl)methyl)amino)-4H-benzo[e][1,2,4]thiadiazine 1,1-dioxide]	30.3 nM
O=S1(=O)N=C(NCc2ccccc2F)Nc2c(-c3cc(F)cc(F)c3)cccc21 [Example 77, 5-(3,5-difluorophenyl)-3-((2-fluorobenzyl)amino)-4H-benzo[e][1,2,4]thiadiazine 1,1-dioxide]	34.9 nM
O=S1(=O)N=C(NCCF)Nc2c(-c3ccccc3Cl)cccc21 [Example 45, 5-(2-chlorophenyl)-3-((2-fluoroethyl)amino)-4H-benzo[e][1,2,4]thiadiazine 1,1-dioxide]	305 nM
O=S1(=O)N=C(NCc2nccs2)Nc2c(-c3cccc(F)c3Cl)cc(F)cc21 [Example 5, 5-(2-chloro-3-fluorophenyl)-7-fluoro-3-((thiazol-2-ylmethyl)amino)-4H-benzo[e][1,2,4]thiadiazine 1,1-dioxide]	20 nM
COC(C)CNC1=NS(=O)(=O)c2cccc(-c3ccccc3Cl)c2N1 (stereo not drawn) [Example 40, 5-(2-chlorophenyl)-3-((2-methoxypropyl)amino)-4H-benzo[e][1,2,4]thiadiazine 1,1-dioxide]	76.2 nM
CNC1=NS(=O)(=O)c2cccc(-c3cc(Cl)ccc3C#N)c2N1 [Example 90, 4-chloro-2-(3-(methylamino)-1,1-dioxido-4H-benzo[e][1,2,4]thiadiazin-5-yl)benzonitrile]	973 nM
CNC1=NS(=O)(=O)c2ccc(F)c(-c3ccccc3Cl)c2N1 [Example 138, 5-(2-chlorophenyl)-6-fluoro-3-(methylamino)-4H-benzo[e][1,2,4]thiadiazine 1,1-dioxide]	190 nM
O=S1(=O)N=C(NCc2c(F)cccc2F)Nc2c(-c3cc(F)cc(F)c3)cccc21 [Example 78, 3-((2,6-difluorobenzyl)amino)-5-(3,5-difluorophenyl)-4H-benzo[e][1,2,4]thiadiazine 1,1-dioxide]	224 nM
Cc1cc(NC2=NS(=O)(=O)c3cccc(-c4cccc(F)c4Cl)c3N2)nn1C(C)C [Example 74, 5-(2-chloro-3-fluorophenyl)-3-((1-isopropyl-5-methyl-1H-pyrazol-3-yl)amino)-4H-benzo[e][1,2,4]thiadiazine 1,1-dioxide]	746 nM
O=S1(=O)N=C(NCc2cc(F)ccc2F)Nc2c(-c3cc(F)cc(F)c3)cccc21 [Example 76, 3-((2,5-difluorobenzyl)amino)-5-(3,5-difluorophenyl)-4H-benzo[e][1,2,4]thiadiazine 1,1-dioxide]	34.8 nM
O=S1(=O)N=C(NCC2CC2)Nc2c(-c3cc(F)ccc3F)cccc21 [Example 140, 3-((cyclopropylmethyl)amino)-5-(2,5-difluorophenyl)-4H-benzo[e][1,2,4]thiadiazine 1,1-dioxide]	692 nM
COc1cccc(CNC2=NS(=O)(=O)c3cccc(-c4cccc(F)c4Cl)c3N2)n1 [Example 18, 5-(2-chloro-3-fluorophenyl)-3-(((6-methoxypyridin-2-yl)methyl)amino)-4H-benzo[e][1,2,4]thiadiazine 1,1-dioxide]	21.3 nM
O=S1(=O)N=C(NCc2ncco2)Nc2c(-c3ccnc(F)c3Cl)cccc21 [Example 48, 5-(3-chloro-2-fluoropyridin-4-yl)-3-((oxazol-2-ylmethyl)amino)-4H-benzo[e][1,2,4]thiadiazine 1,1-dioxide]	36 nM
CO[C@@H](C)CNC1=NS(=O)(=O)c2cccc(-c3cc(F)cc(F)c3F)c2N1 (single isomer, unassigned) [Example 128]	24.9 nM
COc1cccc(CNC2=NS(=O)(=O)c3cccc(-c4cccc(F)c4F)c3N2)n1 [Example 19, 5-(2,3-difluorophenyl)-3-(((6-methoxypyridin-2-yl)methyl)amino)-4H-benzo[e][1,2,4]thiadiazine 1,1-dioxide]	23.4 nM
O=S1(=O)N=C(NCc2ncco2)Nc2c(-c3cccc(F)c3F)cccc21 [Example 27, 5-(2,3-difluorophenyl)-3-((oxazol-2-ylmethyl)amino)-4H-benzo[e][1,2,4]thiadiazine 1,1-dioxide]	344 nM
COCCNC1=NS(=O)(=O)c2cccc(-c3cc(F)ccc3Cl)c2N1 [Example 144, 5-(2-chloro-5-fluorophenyl)-3-((2-methoxyethyl)amino)-4H-benzo[e][1,2,4]thiadiazine 1,1-dioxide]	216 nM

SMILES	EC50
O=S1(=O)N=C(NCc2ccccn2)Nc2c(-c3cc(F)cc(F)c3)cccc21 [Example 83, 5-(3,5-difluorophenyl)-3-((pyridin-2-ylmethyl)amino)-4H-benzo[e][1,2,4]thiadiazine 1,1-dioxide]	423 nM
Cc1coc(CNC2=NS(=O)(=O)c3cccc(-c4cccc(F)c4Cl)c3N2)n1 [Example 30, 5-(2-chloro-3-fluorophenyl)-3-(((4-methyloxazol-2-yl)methyl)amino)-4H-benzo[e][1,2,4]thiadiazine 1,1-dioxide]	28.6 nM
CO[C@H](C)CNC1=NS(=O)(=O)c2cccc(-c3cccc(F)c3F)c2N1 (single isomer, unassigned) [Example 24]	64.1 nM
CN1CCOC(CNC2=NS(=O)(=O)c3cccc(-c4cccc(F)c4Cl)c3N2)C1 (stereo not drawn) [Example 57, 5-(2-chloro-3-fluorophenyl)-3-(((4-methylmorpholin-2-yl)methyl)amino)-4H-benzo[e][1,2,4]thiadiazine 1,1-dioxide]	173 nM
CC(C)c1ccc(NC2=NS(=O)(=O)c3cccc(C4CC4)c3N2)cn1 [Example 118, 5-cyclopropyl-3-((6-isopropylpyridin-3-yl)amino)-4H-benzo[e][1,2,4]thiadiazine 1,1-dioxide]	378 nM
O=S1(=O)N=C(NCc2ncccc2F)Nc2c(-c3ccnc(F)c3Cl)cccc21 [Example 51, 5-(3-chloro-2-fluoropyridin-4-yl)-3-(((3-fluoropyridin-2-yl)methyl)amino)-4H-benzo[e][1,2,4]thiadiazine 1,1-dioxide]	19 nM
O=S1(=O)N=C(NCC2CC2)Nc2c(-c3cccc(F)c3Cl)cccc21 [Example 29, 5-(2-chloro-3-fluorophenyl)-3-((cyclopropylmethyl)amino)-4H-benzo[e][1,2,4]thiadiazine 1,1-dioxide]	26.8 nM
COCCNC1=NS(=O)(=O)c2cccc(-c3ccc(F)c(F)c3C)c2N1 [Example 170, 5-(3,4-difluoro-2-methylphenyl)-3-((2-methoxyethyl)amino)-4H-benzo[e][1,2,4]thiadiazine, 1,1-dioxide]	638 nM
CC(C)c1ccc(NC2=NS(=O)(=O)c3cccc(-c4ccccc4Cl)c3N2)cc1 [Example 112, 5-(2-chlorophenyl)-3-((4-isopropylphenyl)amino)-4H-benzo[e][1,2,4]thiadiazine 1,1-dioxide]	165 nM
COC(C)CNC1=NS(=O)(=O)c2cccc(-c3cccc(F)c3C#N)c2N1 (stereo not drawn) [Example 150, 2-fluoro-6-(3-((2-methoxypropyl)amino)-1,1-dioxido-4H-benzo[e][1,2,4]thiadiazin-5-yl)benzonitrile]	416 nM
COC(C)CNC1=NS(=O)(=O)c2cccc(-c3cc(F)cc(F)c3F)c2N1 (stereo not drawn) [Example 127, 3-((2-methoxypropyl)amino)-5-(2,3,5-trifluorophenyl)-4H-benzo[e][1,2,4]thiadiazine 1,1-dioxide]	87.1 nM
COCCCNC1=NS(=O)(=O)c2cccc(-c3cccc(F)c3Cl)c2N1 [Example 151, 5-(2-chloro-3-fluorophenyl)-3-((3-methoxypropyl)amino)-4H-benzo[e][1,2,4]thiadiazine 1,1-dioxide]	562 nM
Cn1cccc(CNC2=NS(=O)(=O)c3cccc(-c4cccc(F)c4Cl)c3N2)c1=O [Example 46, 3-(((5-(2-chloro-3-fluorophenyl)-1,1-dioxido-4H-benzo[e][1,2,4]thiadiazin-3-yl)amino)methyl)-1-methylpyridin-2(1H)-one]	87.9 nM
O=S1(=O)N=C(NCCc2ccncc2)Nc2c(-c3cccc(F)c3Cl)cccc21 [Example 68, 5-(2-chloro-3-fluorophenyl)-3-((2-(pyridin-4-yl)ethyl)amino)-4H-benzo[e][1,2,4]thiadiazine 1,1-dioxide]	305 nM
COCCNC1=NS(=O)(=O)c2cccc(-c3ccc(F)cc3Cl)c2N1 [Example 133, 5-(2-chloro-4-fluorophenyl)-3-((2-methoxyethyl)amino)-4H-benzo[e][1,2,4]thiadiazine 1,1-dioxide]	296 nM
O=S1(=O)N=C(NCC2CCC2)Nc2c(-c3cccc(F)c3Cl)cccc21 [Example 17, 5-(2-chloro-3-fluorophenyl)-3-((cyclobutylmethyl)amino)-4H-benzo[e][1,2,4]thiadiazine 1,1-dioxide]	20.7 nM
COCCNC1=NS(=O)(=O)c2cccc(-c3ccccc3C3CC3)c2N1 [Example 63, 5-(2-cyclopropylphenyl)-3-((2-methoxyethyl)amino)-4H-benzo[e][1,2,4]thiadiazine 1,1-dioxide]	953 nM
COCCNC1=NS(=O)(=O)c2cccc(-c3cc(F)cc(F)c3F)c2N1 [Example 168, 3-((2-methoxyethyl)amino)-5-(2,3,5-trifluorophenyl)-4H-benzo[e][1,2,4]thiadiazine 1,1-dioxide]	470 nM
